From ChEMBL document CHEMBL4842358, “Design, synthesis and biological evaluation of sphingosine-1-phosphate receptor 2 antagonists as potent 5-FU-resistance reversal agents for the treatment of colorectal cancer” (Eur J Med Chem, 2021)
Active and inactive are the calls of the source. No cut-off for these calls is given here.

Columns and labels:
[1] = Clearance in Sprague-Dawley rat plasma at 1 mg/kg, iv measured for 24 hrs by LC-MS/MS analysis; type: ADME, organism-based
[2] = target: T1, Sphingosine 1-phosphate receptor 2 (Homo sapiens, UniProt O95136); experiment: Antagonist activity at S1PR2 in human SW620/5-FU cells assessed as reduction of DPD-catalyzed 5-FU degradation by measuring intracellular 5-FU level at 2 uM measured after 6 hrs by HPLC-UV analysis; type: functional, cell-based; conditions: filed as antagonist
[3] = Ratio of drug level in Sprague-Dawley rat blood to plasma at 1 mg/kg, iv measured for 24 hrs by LC-MS/MS analysis; type: ADME, organism-based; conditions: blood and plasma
[4] = Volume of distribution in Sprague-Dawley rat blood at 1 mg/kg, iv measured for 24 hrs by LC-MS/MS analysis; type: ADME, organism-based
[5] = target: T1, Sphingosine 1-phosphate receptor 2; experiment: Binding affinity to S1PR2 (unknown origin) assessed as association constant measured for 60 secs by surface plasmon resonance assay; conditions: filed as antagonist, time 60.0 sec
[6] = target: T1, Sphingosine 1-phosphate receptor 2; experiment: Binding affinity to S1PR2 (unknown origin) measured by surface plasmon resonance assay; conditions: filed as antagonist
[7] = Toxicity in athymic nude mouse xenografted with human SW620/5-FU cells assessed as histopathological changes in liver at 12.5 mg/kg/day, iv administered for 24 days in presence of 5-FU and measured on day 24 by immunohistochemistry; type: organism-based; conditions: in vivo, 576 h, time 24 day
[8] = Plasma concentration in Sprague-Dawley rat at 1 mg/kg, iv measured after 8 hrs by LC-MS/MS analysis; type: ADME, organism-based
[9] = AUC (0 to t) in Sprague-Dawley rat plasma at 1 mg/kg, iv measured for 24 hrs by LC-MS/MS analysis; type: ADME, organism-based; parameters: dose 1 mg/kg, time 24 hrs
[10] = Mean residence time (0 to t) in Sprague-Dawley rat blood at 1 mg/kg, iv measured for 24 hrs by LC-MS/MS analysis; type: ADME, organism-based
[11] = AUC (0 to infinity) in Sprague-Dawley rat plasma at 1 mg/kg, iv by LC-MS/MS analysis; type: ADME, organism-based; parameters: time infinity, route intravenous, dose 1 mg/kg
[12] = Drug concentration in Sprague-Dawley rat blood at 1 mg/kg, iv measured after 8 hrs by LC-MS/MS analysis; type: ADME, organism-based; conditions: read-out: Ct
[13] = Half life in Sprague-Dawley rat blood at 1 mg/kg, iv measured for 24 hrs by LC-MS/MS analysis; type: ADME, organism-based
Mus musculus [14] = experiment: Downregulation of DPD expression in tumour of athymic nude mouse xenografted with human SW620/5-FU at 12.5 mg/kg/day, iv administered for 24 days in presence of 5-FU and measured on day 24 by immunohistochemistry; type: functional, organism-based; conditions: time 24.0 day
[15] = target: T1, Sphingosine 1-phosphate receptor 2; experiment: Antagonist activity at S1PR2 in human SW620/5-FU cells assessed as reduction of DPD-catalyzed 5-FU degradation by measuring intracellular FBAL level at 2 uM measured after 6 hrs by HPLC-UV analysis; type: functional, cell-based; conditions: filed as antagonist
[16] = Initial plasma concentration in Sprague-Dawley rat at 1 mg/kg, iv by LC-MS/MS analysis; type: ADME, organism-based
[17] = Mean residence time (0 to infinity) in Sprague-Dawley rat blood at 1 mg/kg, iv by LC-MS/MS analysis; type: ADME, organism-based
[18] = Mean residence time (0 to infinity) in Sprague-Dawley rat plasma at 1 mg/kg, iv by LC-MS/MS analysis; type: ADME, organism-based
[19] = Reversal of 5-FU resistance against human SW620/5-FU cells assessed as inhibition of cell proliferation measured after 72 hrs in presence of 5-FU by MTT assay; type: functional, cell-based
Mus musculus [20] = experiment: Downregulation of DPD expression in liver of athymic nude mouse xenografted with human SW620/5-FU at 12.5 mg/kg/day, iv administered for 24 days in presence of 5-FU and measured on day 24 by immunohistochemistry; type: functional, organism-based; conditions: time 24.0 day
[21] = Initial drug concentration in Sprague-Dawley rat blood at 1 mg/kg, iv by LC-MS/MS analysis; type: ADME, organism-based
[22] = Half life in Sprague-Dawley rat plasma at 1 mg/kg, iv measured for 24 hrs by LC-MS/MS analysis; type: ADME, organism-based
Mus musculus [23] = experiment: Downregulation of DPD expression in colon of athymic nude mouse xenografted with human SW620/5-FU cells at 12.5 mg/kg/day, iv administered for 24 days in presence of 5-FU and measured on day 24 by immunohistochemistry; type: functional, organism-based; conditions: time 24.0 day
[24] = AUC (0 to infinity) in Sprague-Dawley rat blood at 1 mg/kg, iv by LC-MS/MS analysis; type: ADME, organism-based; parameters: route intravenous, time infinity, dose 1 mg/kg
[25] = Mean residence time (0 to t) in Sprague-Dawley rat plasma at 1 mg/kg, iv measured for 24 hrs by LC-MS/MS analysis; type: ADME, organism-based
[26] = Toxicity in athymic nude mouse xenografted with human SW620/5-FU cells assessed as body weight loss at 12.5 mg/kg/day, iv administered for 24 days in presence of 5-FU and measured after 12 days; type: organism-based; conditions: in vivo, 288 h, time 12 day
[27] = Clearance in Sprague-Dawley rat blood at 1 mg/kg, iv measured for 24 hrs by LC-MS/MS analysis; type: ADME, organism-based
[28] = Volume of distribution in Sprague-Dawley rat plasma at 1 mg/kg, iv measured for 24 hrs by LC-MS/MS analysis; type: ADME, organism-based
NCM460 = experiment: Cytotoxicity against human NCM460 cells assessed as cell viability measured after 72 hrs in presence of 5-FU by MTT assay; type: cell-based; conditions: NCM460, 72 h
[29] = target: T1, Sphingosine 1-phosphate receptor 2; experiment: Binding affinity to S1PR2 (unknown origin) assessed as dissociation constant measured for 60 secs by surface plasmon resonance assay
[30] = Reversal of 5-FU resistance against human SW620/5-FU cells xenografted in athymic nude mouse assessed as potentiation of 5-FU induced antitumor activity by measuring inhibition of tumor growth at 12.5 mg/kg/day, iv administered for 24 days in presence of 5-FU (reference value: 18.54%); type: functional; conditions: 576 h, time 24 day, read-out: TGI
[31] = AUC (0 to t) in Sprague-Dawley rat blood at 1 mg/kg, iv measured for 24 hrs by LC-MS/MS analysis; type: ADME, organism-based; parameters: time 24 hrs, dose 1 mg/kg
HCT-116 = experiment: Reversal of 5-FU resistance against human HCT-116 cells overexpressing DPD assessed as inhibition of cell proliferation measured after 72 hrs in presence of 5-FU by MTT assay; type: functional, cell-based; conditions: HCT-116, 72 h

T1 sequence (O95136 whole entry): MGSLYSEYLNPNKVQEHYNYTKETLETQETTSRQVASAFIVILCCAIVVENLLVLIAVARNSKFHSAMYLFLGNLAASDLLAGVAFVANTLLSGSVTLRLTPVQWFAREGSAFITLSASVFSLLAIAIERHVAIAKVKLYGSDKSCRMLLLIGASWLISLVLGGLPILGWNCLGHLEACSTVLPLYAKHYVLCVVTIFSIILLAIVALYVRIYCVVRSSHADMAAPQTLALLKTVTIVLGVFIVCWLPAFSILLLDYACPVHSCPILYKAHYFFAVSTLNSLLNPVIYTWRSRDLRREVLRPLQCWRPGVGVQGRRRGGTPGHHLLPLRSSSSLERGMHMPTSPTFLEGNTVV

Work on `Cc1nn(C)c2nc(NNC(=O)Nc3cc(Cl)nc(Cl)c3)cc(C(C)C)c12` yielded a clearance [1] of 35 mL/min/kg, an Activity [2] of 4.87 mg/L and a blood plasma ratio at 24 h [3] of 1.62. The Vd [4] was 2.1 L/kg, the Ka [5] was 8.21 10^4/M/s and the K [6] was 1.96 10^-6M. The Activity [7] was “Non-Toxic”, the concentration at 8 h [8] was under 1 ng/mL and the AUC(0-t) at 24 h [9] was 482 ng·h/mL. The MRT last at 24 h [10] was 54 min, the AUC(0-inf) [11] was 484 ng·h/mL and the concentration at 8 h [12] was under 1 ng/mL. For the same compound, the half-life [13] was 60 min, the inhibition (Mus musculus [14]) was “Active” and the Activity [15] was 1.37 mg/L. The C0 [16] was 2020 ng/mL, the MRT inf [17] was 60 min and the MRT inf [18] was 54 min. For the same compound, the EC50 [19] was 58.6 µM, the inhibition (Mus musculus [20]) was “Active” and the C0 [21] was 1840 ng/mL. For the same compound, the half-life [22] was 66 min, the inhibition (Mus musculus [23]) was “inactive” and the AUC(0-inf) [24] was 738 ng·h/mL. For the same compound, the MRT last at 24 h [25] was 54 min, the Activity [26] was “Toxic” and the clearance [27] was 23.3 mL/min/kg. The Vd [28] was 3.1 L/kg, the EC50 (NCM460) was 61.3 µM and the “Dissociation rate constant (koff)” value [29] was 1.61 10^-1/s. For the same compound, the inhibition in vivo at 12.5 mg/kg/day [30] was 29.9%, the AUC(0-t) at 24 h [31] was 726 ng·h/mL and the EC50 (HCT-116) was 17.1 µM.
